Assay results: PubChem BioAssay (NCI)
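Tested at 5 concentrations; 48 h exposure; 96-well plates; endpoints linearly interpolated, else capped at highest concentration. GI50 marks 50% less growth. TGI denotes the concentration required for complete inhibition of growth.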

Columns and labels:
Experiment in all cases: growth of human tumour cells (NCI), 48 h
EKVX NSCLC = tested on: EKVX NSCLC
NCI-H23 lung = tested on: NCI-H23 lung
SK-MEL-2 melanoma = tested on: SK-MEL-2 melanoma
T-47D breast = tested on: T-47D breast
HOP-92 NSCLC = tested on: HOP-92 NSCLC
NCI-H460 lung = tested on: NCI-H460 lung
DU-145 prostate = tested on: DU-145 prostate
LOX IMVI melanoma = tested on: LOX IMVI melanoma
U251 CNS = tested on: U251 CNS
HCT-116 colon = tested on: HCT-116 colon
MOLT-4 leukemia = tested on: MOLT-4 leukemia
SR leukemia = tested on: SR leukemia
OVCAR-5 ovarian = tested on: OVCAR-5 ovarian
RPMI-8226 leukemia = tested on: RPMI-8226 leukemia
PC-3 prostate = tested on: PC-3 prostate
BT-549 breast = tested on: BT-549 breast
HCT-15 colon = tested on: HCT-15 colon
HCC-2998 colon = tested on: HCC-2998 colon
SF-295 CNS = tested on: SF-295 CNS
HOP-62 NSCLC = tested on: HOP-62 NSCLC
SK-MEL-28 melanoma = tested on: SK-MEL-28 melanoma
MDA-MB-468 breast = tested on: MDA-MB-468 breast
M14 melanoma = tested on: M14 melanoma
OVCAR-3 ovarian = tested on: OVCAR-3 ovarian
A549 NSCLC = tested on: A549 NSCLC
NCI-H226 lung = tested on: NCI-H226 lung
HT29 colon = tested on: HT29 colon
SNB-19 CNS = tested on: SNB-19 CNS
SF-539 CNS = tested on: SF-539 CNS
CAKI-1 renal = tested on: CAKI-1 renal
OVCAR-8 ovarian = tested on: OVCAR-8 ovarian
ACHN renal = tested on: ACHN renal
OVCAR-4 ovarian = tested on: OVCAR-4 ovarian
SF-268 CNS = tested on: SF-268 CNS
HS 578T breast = tested on: HS 578T breast
CCRF-CEM leukemia = tested on: CCRF-CEM leukemia
MALME-3M melanoma = tested on: MALME-3M melanoma
MDA-MB-435 = tested on: MDA-MB-435
NCI-H522 lung = tested on: NCI-H522 lung
SN12C renal = tested on: SN12C renal
IGROV1 ovarian = tested on: IGROV1 ovarian
SK-MEL-5 melanoma = tested on: SK-MEL-5 melanoma
UACC-257 melanoma = tested on: UACC-257 melanoma
HL-60(TB) leukemia = tested on: HL-60(TB) leukemia
COLO 205 colon = tested on: COLO 205 colon
UO-31 renal = tested on: UO-31 renal
UACC-62 melanoma = tested on: UACC-62 melanoma
KM12 colon = tested on: KM12 colon
RXF 393 renal = tested on: RXF 393 renal
A498 renal = tested on: A498 renal
SK-OV-3 ovarian = tested on: SK-OV-3 ovarian
786-0 renal = tested on: 786-0 renal
MDA-MB-231 breast = tested on: MDA-MB-231 breast
MCF7 breast = tested on: MCF7 breast
SNB-75 CNS = tested on: SNB-75 CNS
SW-620 colon = tested on: SW-620 colon
K-562 leukemia = tested on: K-562 leukemia
TK-10 renal = tested on: TK-10 renal

## O=C(c1ccc(Cl)cc1)C1[C@H](c2ccccc2Br)[C@@H](c2ccccc2)NC12C(=O)Nc1ccc(Cl)cc12 (stereo partly specified)
EKVX NSCLC
  GI50: 10.6 µM
  TGI: 26 µM
NCI-H23 lung
  GI50: 10.1 µM
  TGI: 19.4 µM
SK-MEL-2 melanoma
  GI50: 9.22 µM
  TGI: 16.9 µM
T-47D breast
  GI50: 9.06 µM
  TGI: 18.2 µM
HOP-92 NSCLC
  GI50: 8.37 µM
  TGI: 16.3 µM
NCI-H460 lung
  GI50: 9.54 µM
  TGI: 18.9 µM
DU-145 prostate
  GI50: 11.1 µM
  TGI: 22.4 µM
LOX IMVI melanoma
  GI50: 9.69 µM
  TGI: 19 µM
U251 CNS
  GI50: 9.17 µM
  TGI: 16.8 µM
HCT-116 colon
  GI50: 9 µM
  TGI: 17.5 µM
MOLT-4 leukemia
  GI50: 16 µM
  TGI: 52.8 µM
SR leukemia
  GI50: 13.5 µM
  TGI: 32 µM
OVCAR-5 ovarian
  GI50: 8.61 µM
  TGI: 16 µM
RPMI-8226 leukemia
  GI50: 15.9 µM
  TGI: 48.8 µM
PC-3 prostate
  GI50: 9.87 µM
  TGI: 20.1 µM
BT-549 breast
  GI50: 7.87 µM
  TGI: 15.7 µM
HCT-15 colon
  GI50: 10.2 µM
  TGI: 20 µM
HCC-2998 colon
  GI50: 9.28 µM
  TGI: 17.4 µM
SF-295 CNS
  GI50: 9.14 µM
  TGI: 18.9 µM
HOP-62 NSCLC
  GI50: 8.65 µM
  TGI: 16.4 µM
SK-MEL-28 melanoma
  GI50: 8.66 µM
  TGI: 16 µM
MDA-MB-468 breast
  GI50: 9.09 µM
  TGI: 17.3 µM
M14 melanoma
  GI50: 9.65 µM
  TGI: 18.3 µM
OVCAR-3 ovarian
  GI50: 10.6 µM
  TGI: 22.7 µM
A549 NSCLC
  GI50: 9.83 µM
  TGI: 20.2 µM
NCI-H226 lung
  GI50: 8.69 µM
  TGI: 17.2 µM
HT29 colon
  GI50: 9.35 µM
  TGI: 18.5 µM
SNB-19 CNS
  GI50: 10.3 µM
  TGI: 23.6 µM
SF-539 CNS
  GI50: 9.17 µM
  TGI: 17 µM
CAKI-1 renal
  GI50: 8.96 µM
  TGI: 17.4 µM
OVCAR-8 ovarian
  GI50: 9.6 µM
  TGI: 18 µM
ACHN renal
  GI50: 9.94 µM
  TGI: 18.9 µM
OVCAR-4 ovarian
  GI50: 11.8 µM
  TGI: 28.5 µM
SF-268 CNS
  GI50: 10.8 µM
  TGI: 25.4 µM
HS 578T breast
  GI50: 11 µM
  TGI: 27.1 µM
CCRF-CEM leukemia
  GI50: 13.6 µM
  TGI: 35.1 µM
MALME-3M melanoma
  GI50: 8.67 µM
  TGI: 16 µM
MDA-MB-435
  GI50: 10.4 µM
  TGI: 20.7 µM
NCI-H522 lung
  GI50: 8.67 µM
  TGI: 16.6 µM
SN12C renal
  GI50: 9.05 µM
  TGI: 16.4 µM
IGROV1 ovarian
  GI50: 9.73 µM
  TGI: 19.1 µM
SK-MEL-5 melanoma
  GI50: 9.44 µM
  TGI: 16.9 µM
UACC-257 melanoma
  GI50: 8.88 µM
  TGI: 16.7 µM
HL-60(TB) leukemia
  GI50: 13.2 µM
  TGI: 36.7 µM
COLO 205 colon
  GI50: 9.34 µM
  TGI: 17.3 µM
UO-31 renal
  GI50: 8.01 µM
  TGI: 15.1 µM
UACC-62 melanoma
  GI50: 8.63 µM
  TGI: 16 µM
KM12 colon
  GI50: 11.5 µM
  TGI: 25.2 µM
RXF 393 renal
  GI50: 8.4 µM
  TGI: 16 µM
A498 renal
  GI50: 9.4 µM
  TGI: 19.3 µM
SK-OV-3 ovarian
  GI50: 12.4 µM
  TGI: 34.4 µM
786-0 renal
  GI50: 9.38 µM
  TGI: 18.8 µM
MDA-MB-231 breast
  GI50: 8.98 µM
  TGI: 16.5 µM
MCF7 breast
  GI50: 11.6 µM
  TGI: 27.9 µM
SNB-75 CNS
  GI50: 8.31 µM
  TGI: 26.9 µM
SW-620 colon
  GI50: 9.58 µM
  TGI: 19.2 µM
K-562 leukemia
  GI50: 18.5 µM
  TGI: 52.8 µM
TK-10 renal
  GI50: 8.71 µM
  TGI: 17 µM
